Results on 21 compounds are retold here after patent publication US8470828B2, “Anellated pyridine compounds” (Hoffmann-La Roche Inc., priority 2010, dated 2013).

Series [1] concerns the target human D3 receptor (Homo sapiens, UniProt P35462). In words: Radioligand binding to cloned human D3 receptor expressed in HEK-293 EBNA cells ([3H]-spiperone).
Description: (§1) HEK293 EBNA cells were transiently transfected with expression plasmids encoding for the human D2 or D3 or for the human 5-HT2A receptor, respectively. The cells were harvested 48 h post-transfection, washed three times with cold PBS and stored at −80° C. prior to use. The pellet was suspended in cold 50 mM Tris-HCl buffer comprising 10 mM EDTA (pH 7.4) and was homogenized with a Polytron (Kinematica A G, Basel, Switzerland) for 20-30 sec at 12.000 rpm. After centrifugation at 48.000×g for 30 min at 4° C., the pellet was resuspended in cold 10 mM Tris-HCl buffer comprising 0.1 mM EDTA (pH 7.4), homogenized, and centrifuged as above. This pellet was further resuspended in a smaller volume of ice cold 10 mM Tris-HCl buffer comprising 0.1 mM EDTA (pH 7.4) and homogenized with a Polytron for 20-30 sec at 12.000 rpm. The protein content of this homogenate was determined with the Bio-Rad (Bradford) Protein Assay (Biorad Laboratories GmbH, München, Germany) according to the instructions of the manufacturer using gamma globulin as the standard. This homogenate was stored at −80° C. in aliquots and thawed immediately prior to use.
(§2) Aliquots of membrane preparations were thawed at RT, resupended in assay buffer (D2, D3: 50 mM Tris-HCl, 120 mM NaCl, 5 mM MgCl2, 1 mM EDTA, 5 mM KCl, 1.5 mM CaCl2, pH=7.4; 5-HT2A: 50 mM Tris-HCl, 10 mM MgCl2, 1 mM EGTA, pH=7.4), homogenized with a Polytron for 20-30 sec at 12.000 rpm and adjusted to a final concentration of approximately 7.5 μg protein/well (D2, D3) and 15 μg protein/well (5-HT2A), respectively.
(§3) The binding affinity (Ki) of the compounds was determined using radioligand binding. Membranes were incubated in a total volume of 200 μl with a fixed concentration of radioligand (final concentration approximately 0.7 nM [^3H]-spiperone for D2, 0.5 nM [^3H]-spiperone for D3, and 1.1 nM [^3H]-ketanserin for 5-HT2A) and ten concentrations of test compound in ranging between 10 μM-0.1 nM for 1 h at RT. At the end of the incubation, the reaction mixtures were filtered on to unifilter 96-well white microplates with bonded GF/C filters (Packard BioScience, Zürich, Switzerland; preincubated for 1 h in 0.1% polyethylenimine (PEI) in assay buffer) with a Filtermate 196 harvester (Packard BioScience) and washed 3 times with cold assay buffer. The nonspecific binding was determined with equally composed reaction mixtures in the presence of 10 μM unlabelled spiperone. Per well 45 μl of Microscint 40 (Perkin Elmer, Schwerzenbach, Switzerland) was added, plates for sealed, shaken for 20 min and counted for 3 min on a Topcount Microplate Scintillation Counter (Can berra Packard S A, Zürich, Switzerland) with quenching correction.
(§4) The CPM value for each duplicate of a concentration of competing compound was averaged (y1), then the % specific binding was calculated according to the equation (((y1−non-specific)/(total binding−non-specific))×100). Graphs were plotted with the % specific binding using XLfit, a curve fitting program that iteratively plots the data using Levenberg-Marquardt algorithm. The single site competition analysis equation used was y=A+((B−A)/(1+((x/C)D))), where y is the % specific binding, A is the minimum y, B is the maximum y, C is the IC50, x is the log 10 of the concentration of the competing compound and D is the slope of the curve (the Hill Coefficient). […] The affinity constant (Ki) was calculated using the Cheng-Prusoff equation Ki=(IC50/1+([L]/Kd), where [L] is the concentration of radioligand and Kd is the dissociation constant of the radioligand at the receptor as determined by the saturation isotherm.
Series [2] addresses human 5-HT2A receptor (Homo sapiens, UniProt P28223). In words: Radioligand binding to cloned human 5-HT2A receptor expressed in HEK-293 EBNA cells ([3H]-ketanserin).
Description: as §1, §2, §3, §4
For series [3], the target named is T1, human D2 receptor (Homo sapiens, UniProt P14416).
T1 construct: expressed in transfected cells; host or cells: HEK293 EBNA cells, transient transfection; membrane preparation
In words: Radioligand binding to cloned human D2 receptor expressed in HEK-293 EBNA cells ([3H]-spiperone). Particulars: HEK293 EBNA cell membranes, approximately 0.7 nM [3H]-spiperone, 1 h at RT.

Sequence of human D3 receptor (P35462 whole entry): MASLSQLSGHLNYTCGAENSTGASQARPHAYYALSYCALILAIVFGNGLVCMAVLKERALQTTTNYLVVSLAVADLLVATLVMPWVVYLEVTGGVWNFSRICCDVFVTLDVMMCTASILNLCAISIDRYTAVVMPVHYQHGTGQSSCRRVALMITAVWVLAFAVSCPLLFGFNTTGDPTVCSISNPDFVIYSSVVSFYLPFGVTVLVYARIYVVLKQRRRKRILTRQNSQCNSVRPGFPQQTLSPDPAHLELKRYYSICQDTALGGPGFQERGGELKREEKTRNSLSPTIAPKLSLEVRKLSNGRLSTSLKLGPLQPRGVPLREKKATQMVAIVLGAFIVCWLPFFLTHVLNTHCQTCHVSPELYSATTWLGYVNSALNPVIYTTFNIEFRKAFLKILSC
T1 sequence (P14416 whole entry): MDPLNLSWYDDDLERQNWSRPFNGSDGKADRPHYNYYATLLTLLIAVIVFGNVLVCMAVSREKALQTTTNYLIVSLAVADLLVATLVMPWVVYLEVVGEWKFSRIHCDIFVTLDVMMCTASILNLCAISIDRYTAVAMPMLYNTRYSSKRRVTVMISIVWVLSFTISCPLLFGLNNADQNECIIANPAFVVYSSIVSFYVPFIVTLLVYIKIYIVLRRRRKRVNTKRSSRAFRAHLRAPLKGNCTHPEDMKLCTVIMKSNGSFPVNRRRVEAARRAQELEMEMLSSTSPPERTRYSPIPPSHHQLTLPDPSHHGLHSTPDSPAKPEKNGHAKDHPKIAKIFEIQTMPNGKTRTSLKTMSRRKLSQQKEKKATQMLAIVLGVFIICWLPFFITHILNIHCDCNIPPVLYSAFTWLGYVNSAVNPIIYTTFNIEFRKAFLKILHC
Sequence of human 5-HT2A receptor (P28223 whole entry): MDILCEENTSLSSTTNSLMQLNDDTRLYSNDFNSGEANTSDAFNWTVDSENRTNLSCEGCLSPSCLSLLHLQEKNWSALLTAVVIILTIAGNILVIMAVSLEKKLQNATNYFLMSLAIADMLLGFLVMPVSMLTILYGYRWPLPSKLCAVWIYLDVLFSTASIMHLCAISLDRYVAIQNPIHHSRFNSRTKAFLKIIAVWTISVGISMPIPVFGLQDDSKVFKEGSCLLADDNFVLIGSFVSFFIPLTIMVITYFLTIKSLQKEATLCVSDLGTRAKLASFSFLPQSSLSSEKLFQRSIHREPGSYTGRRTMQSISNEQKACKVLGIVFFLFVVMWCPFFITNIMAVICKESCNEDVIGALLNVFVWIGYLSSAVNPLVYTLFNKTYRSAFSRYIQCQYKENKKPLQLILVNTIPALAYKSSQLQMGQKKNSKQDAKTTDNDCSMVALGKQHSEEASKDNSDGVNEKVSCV

The compound `O=C(N[C@H]1CC[C@H](CCN2CCN(c3nccc4c3OCC4)CC2)CC1)c1ccc(-n2cccn2)cc1` [Example 65, trans-N-(4-{2-[4-(2,3-Dihydro-furo[2,3-c]pyridin-7-yl)-piperazin-1-yl]-ethyl}-cyclohexyl)-4-pyrazol-1-yl-benzamide] gave a melting point of 225.5 °C. In series [1], this compound returned a Ki of 11.1 nM. Further, the inhibition constant (Ki) in series [2] came to 29.2 nM. The compound further displayed an inhibitory constant (Ki) in series [3] of 502 nM.
Take `O=C(N[C@H]1CC[C@H](CCN2CCN(c3nccc4c3OCC4)CC2)CC1)c1ccc(-n2cccc2)cc1` [Example 66, trans-N-(4-{2-[4-(2,3-Dihydro-furo[2,3-c]pyridin-7-yl)-piperazin-1-yl]-ethyl}-cyclohexyl)-4-pyrrol-1-yl-benzamide]: the melting point was determined as 236.5 °C. Besides, affinity in series [1] was put at a Ki of 13.8 nM. Further, in series [2], the Ki amounted to 38 nM. In series [3], this compound returned a Ki of 240 nM.
The matching figures for `O=C(N[C@H]1CC[C@H](CCN2CCN(c3nccc4c3OCC4)CC2)CC1)c1ccc(Cl)cc1Cl` [Example 67, trans-2,4-Dichloro-N-(4-{2-[4-(2,3-dihydro-furo[2,3-c]pyridin-7-yl)-piperazin-1-yl]-ethyl}-cyclohexyl)-benzamide]: 243.5 °C, 47.2 nM, 93.3 nM and 5050 nM.
In turn, `CN1CCN(c2ccc(C(=O)N[C@H]3CC[C@H](CCN4CCN(c5nccc6c5OCC6)CC4)CC3)cc2)CC1` [Example 68, trans-N-(4-{2-[4-(2,3-Dihydro-furo[2,3-c]pyridin-7-yl)-piperazin-1-yl]-ethyl}-cyclohexyl)-4-(4-methyl-piperazin-1-yl)-benzamide] yielded a melting point of 235.5 °C. In series [1], this compound returned an inhibitory constant (Ki) of 6 nM. In series [2], this compound showed an inhibitory constant (Ki) of 4.86 nM. Besides, the Ki in series [3] was determined as 120 nM.
With `Cc1ccc(C(=O)N[C@H]2CC[C@H](CCN3CCN(c4nccc5c4OCC5)CC3)CC2)cn1` [Example 69, trans-N-(4-{2-[4-(2,3-Dihydro-furo[2,3-c]pyridin-7-yl)-piperazin-1-yl]-ethyl}-cyclohexyl)-6-methyl-nicotinamide], the melting point stood at 204 °C. Moreover, the Ki in series [1] turned out to be 17.3 nM. In series [2], this compound yielded a Ki of 25.2 nM. This compound also displayed a Ki in series [3] of 597 nM.
On to `O=C(N[C@H]1CC[C@H](CCN2CCN(c3nccc4c3OCC4)CC2)CC1)c1ccc(-c2ccccc2)cc1` [Example 70, Biphenyl-4-carboxylic acid trans-(4-{2-[4-(2,3-dihydro-furo[2,3-c]pyridin-7-yl)-piperazin-1-yl]-ethyl}-cyclohexyl)-amide], for which the melting point worked out at 220.5 °C. The compound further returned a Ki in series [1] of 18.4 nM. The Ki in series [2] worked out at 45.6 nM. Further, the affinity in series [3], expressed as Ki, was 556 nM.
Regarding `O=C(N[C@H]1CC[C@H](CCN2CCN(c3nccc4c3OCC4)CC2)CC1)c1ccc(-c2cccnc2)cc1` [Example 71, trans-N-(4-{2-[4-(2,3-Dihydro-furo[2,3-c]pyridin-7-yl)-piperazin-1-yl]-ethyl}-cyclohexyl)-4-pyridin-3-yl-benzamide], the melting point was 235 °C. This compound also displayed a Ki in series [1] of 7.61 nM. In series [2], this compound showed a Ki of 19.1 nM. Besides, in series [3], the Ki is 270 nM.
The like results for `N#Cc1ccc(C(=O)N[C@H]2CC[C@H](CCN3CCN(c4nccc5c4OCC5)CC3)CC2)cc1` [Example 72, trans-4-Cyano-N-(4-{2-[4-(2,3-dihydro-furo[2,3-c]pyridin-7-yl)-piperazin-1-yl]-ethyl}-cyclohexyl)-benzamide] were, in that order, 262.5 °C, 17.8 nM, 24.6 nM and 633 nM.
`O=C(N[C@H]1CC[C@H](CCN2CCN(c3nccc4c3OCC4)CC2)CC1)c1ccc(N2CCOCC2)nc1` [Example 73, trans-N-(4-{2-[4-(2,3-Dihydro-furo[2,3-c]pyridin-7-yl)-piperazin-1-yl]-ethyl}-cyclohexyl)-6-morpholin-4-yl-nicotinamide]: the melting point was determined as 231 °C. In series [1], the affinity corresponds to a Ki of 15 nM. For the same compound, the Ki in series [2] was determined as 22.4 nM. This compound came in with an inhibition constant (Ki) in series [3] of 479 nM.
`O=C(N[C@H]1CC[C@H](CCN2CCN(c3nccc4c3OCC4)CC2)CC1)c1ccc(N2CCS(=O)(=O)CC2)cc1` [Example 74, trans-N-(4-{2-[4-(2,3-Dihydro-furo[2,3-c]pyridin-7-yl)-piperazin-1-yl]-ethyl}-cyclohexyl)-4-(1,1-dioxo-1λ6-thiomorpholin-4-yl)-benzamide] yielded a melting point of 260.5 °C. This compound displayed an inhibition constant Ki in series [1] of 9.47 nM. Also, in series [2], the Ki came to 23.1 nM. The compound also showed a Ki in series [3] of 145 nM.
The matching figures for `O=C(Cc1noc2ccccc12)N[C@H]1CC[C@H](CCN2CCN(c3nccc4c3OCC4)CC2)CC1` [Example 75, trans-2-Benzo[d]isoxazol-3-yl-N-(4-{2-[4-(2,3-dihydro-furo[2,3-c]pyridin-7-yl)-piperazin-1-yl]-ethyl}-cyclohexyl)-acetamide]: 211 °C, 6.28 nM, 45.7 nM and 628 nM.
`CC(C)(C)Oc1ccc(C(=O)N[C@H]2CC[C@H](CCN3CCN(c4nccc5c4OCC5)CC3)CC2)cc1` [Example 76, trans-4-tert-Butoxy-N-(4-{2-[4-(2,3-dihydro-furo[2,3-c]pyridin-7-yl)-piperazin-1-yl]-ethyl}-cyclohexyl)-benzamide] gave a melting point of 168.5 °C. In series [1], this compound showed a Ki of 33.3 nM. Besides, the Ki in series [2] came to 44.3 nM. The same compound yielded a Ki in series [3] of 814 nM.
`O=C(N[C@H]1CC[C@H](CCN2CCN(c3nccc4c3OCC4)CC2)CC1)c1ccc2ncccc2c1` [Example 77, Quinoline-6-carboxylic acid trans-(4-{2-[4-(2,3-dihydro-furo[2,3-c]pyridin-7-yl)-piperazin-1-yl]-ethyl}-cyclohexyl)-amide] yielded a melting point of 211.5 °C. This compound came in with a Ki in series [1] of 9.44 nM. For the same compound, the Ki in series [2] amounted to 35.4 nM. In series [3], this compound showed a Ki of 432 nM.
The matching figures for `O=C(N[C@H]1CC[C@H](CCN2CCN(c3nccc4c3OCC4)CC2)CC1)c1cnc(N2CCOCC2)cn1` [Example 78, 5-Morpholin-4-yl-pyrazine-2-carboxylic acid trans-(4-{2-[4-(2,3-dihydro-furo[2,3-c]pyridin-7-yl)-piperazin-1-yl]-ethyl}-cyclohexyl)-amide]: 200.5 °C, 42.5 nM, 29.6 nM and 670 nM.
The compound `O=C(N[C@H]1CC[C@H](CCN2CCN(c3nccc4c3OCC4)CC2)CC1)C1(O)CCC1` [Example 79, 1-Hydroxy-cyclobutanecarboxylic acid trans-(4-{2-[4-(2,3-dihydro-furo[2,3-c]pyridin-7-yl)-piperazin-1-yl]-ethyl}-cyclohexyl)-amide] returned a melting point of 250 °C. Besides, the Ki in series [1] amounted to 37.5 nM. The compound also came in with a Ki in series [2] of 15.7 nM. The compound further gave an inhibition constant (Ki) in series [3] of 623 nM.
Regarding `CS(=O)(=O)c1ccc(C(=O)N[C@H]2CC[C@H](CCN3CCN(c4nccc5c4OCC5)CC3)CC2)s1` [Example 81, 5-Methanesulfonyl-thiophene-2-carboxylic acid trans-(4-{2-[4-(2,3-dihydro-furo[2,3-c]pyridin-7-yl)-piperazin-1-yl]-ethyl}-cyclohexyl)-amide], the melting point is 212 °C. In series [1], this compound showed a Ki of 12.2 nM. The same compound had a Ki in series [2] of 19 nM. The compound further had a Ki in series [3] of 362 nM.
Regarding `O=C(CCC(F)(F)F)N[C@H]1CC[C@H](CCN2CCN(c3nccc4c3OCC4)CC2)CC1` [Example 84, trans-N-(4-{2-[4-(2,3-Dihydro-furo[2,3-c]pyridin-7-yl)-piperazin-1-yl]-ethyl}-cyclohexyl)-4,4,4-trifluoro-butyramide], the melting point worked out at 204.5 °C. Further, the Ki in series [1] was determined as 14.2 nM. Moreover, the affinity in series [2], expressed as Ki, was 112 nM. In addition, affinity in series [3] was put at a Ki of 1410 nM.
`O=C(N[C@H]1CC[C@H](CCN2CCN(c3nccc4c3OCC4)CC2)CC1)C1CC1(F)F` (stereo partly drawn) [Example 85, 2,2-Difluoro-cyclopropanecarboxylic acid trans-(4-{2-[4-(2,3-dihydro-furo[2,3-c]pyridin-7-yl)-piperazin-1-yl]-ethyl}-cyclohexyl)-amide] displayed a melting point of 227 °C. In series [1], this compound came in with an inhibition constant Ki of 9.89 nM. This compound also yielded a Ki in series [2] of 60.2 nM. Also, the Ki in series [3] was found to be 616 nM.
As to `CC#CC(=O)N[C@H]1CC[C@H](CCN2CCN(c3nccc4c3OCC4)CC2)CC1` [Example 86, But-2-ynoic acid trans-(4-{2-[4-(2,3-dihydro-furo[2,3-c]pyridin-7-yl)-piperazin-1-yl]-ethyl}-cyclohexyl)-amide], the melting point was 176 °C. The Ki in series [1] turned out to be 7.33 nM. In series [2], the Ki was 38.8 nM. The compound further came in with an inhibitory constant (Ki) in series [3] of 434 nM.
The like results for `C/C=C/CC(=O)N[C@H]1CC[C@H](CCN2CCN(c3nccc4c3OCC4)CC2)CC1` [Example 87, (E)-Pent-3-enoic acid trans-(4-{2-[4-(2,3-dihydro-furo[2,3-c]pyridin-7-yl)-piperazin-1-yl]-ethyl}-cyclohexyl)-amide] were, in that order, 170 °C, 6.64 nM, 73.6 nM and 939 nM.
In turn, `CC(C)=CC(=O)N[C@H]1CC[C@H](CCN2CCN(c3nccc4c3OCC4)CC2)CC1` [Example 88, 3-Methyl-but-2-enoic acid trans-(4-{2-[4-(2,3-dihydro-furo[2,3-c]pyridin-7-yl)-piperazin-1-yl]-ethyl}-cyclohexyl)-amide] came in with a melting point of 183.5 °C. In series [1], this compound returned a Ki of 9.4 nM. Also, the affinity in series [2], expressed as Ki, was 59.5 nM. Moreover, the Ki in series [3] amounted to 201 nM.
